Test results published in patent US20120202885A1, “METHODS, ASSAYS AND COMPOSITIONS FOR TREATING RETINOL-RELATED DISEASES” (ReVision Therapeutics, Inc., priority 2004, published 2012).

Assays:
ABCA4 null mutant mice = assay: 28-day HPR dose study: serum retinol, A2PE-H2, A2E, retinoids, retinal physiology and histology; type: in vivo
Method: ABCA4 null mutant mice were given the indicated dose of HPR in DMSO (i.p.) daily for 28 days (n=4 mice per dosage group). At the end of the study period, blood samples were taken and serum was prepared. Following acetonitrile precipitation of serum proteins, the concentrations of retinol and HPR were determined from the soluble phase by LC/MS (see FIG. 8). Identity of the eluted compounds was confirmed by UV-vis absorption spectroscopy and co-elution of sample peaks with authentic standards.
Group averages from the data shown in panels A-G of FIG. 13 in Example 25 (28 day time points) are plotted to illustrate the strong correlation between increases in serum HPR and decreases in serum retinol (see FIG. 14). Reductions in serum retinol are highly correlated with reductions in A2E and precursor compounds (A2PE-H2). A pronounced reduction in A2PE-H2 in the 2.5 mg/kg dosage group (−47%) is observed when the serum retinol reduction is only 20%. The reason for this disproportionate reduction is related to the inherently lower ocular retinoid content in this group of 2-month old animals compared to the other groups. It is likely that if these animals had been maintained on the 2.5 mg/kg dose for a more prolonged period, a greater reduction in A2E would also be realized.
Panels D-F of FIG. 15 are electrophysiological measurements of rod function (panel D), rod and cone function (panel E) and recovery from photobleaching (panel F).
ABCA4 null mutant mice were given the indicated dose of HPR in DMSO or DMSO alone daily for 28 days (n=16 mice per treatment group). At study onset, mice in the 2.5 mg/kg group were 2 months of age, mice in the other treatment groups were 3 months of age. At the indicated times, representative mice were taken from each group (n=4) for analysis of A2E precursor compounds (see FIG. 13, A2PE-H2, panels A, C and E) and A2E (see FIG. 13, panels B, D and F). Eyes were enucleated, hemisected and lipid soluble components were extracted from the posterior pole by chloroform/methanol-water phase partitioning. Sample extracts were analyzed by LC. Identity of the eluted compounds was confirmed by UV-vis absorption spectroscopy and co-elution of sample peaks with authentic standards. Note: limitations in appropriately age and strain-matched mice in the 10 mg/kg group prevented analysis at the 14-day interval.
Treatment conditions are as described above.

[1] = target: interaction of TTR with RBP (Homo sapiens, UniProt P02753); settings: Malpeli et al., Holven et al.; cited from earlier work
retinol-RBP-TTR complex = retinol-RBP-TTR complex (Homo sapiens, UniProt P02753); assay: High-throughput FRET assay for RBP/TTR interaction; type: binding
Excerpt: Reduction of serum retinol and RBP are correlated with concomitant reductions in toxic lipofuscin fluorophores. Because compounds that affect RBP-TTR interaction will directly affect fluorophore levels in the eye, a high-throughput screen for small molecules which prevent interaction of RBP with TTR was developed. This screen employs probe-labeled forms of RBP and TTR which participate in a unique fluorescence resonance energy transfer (FRET) event when complexed. Compounds which interfere with RBP-TTR interaction prevent FRET. Sample spectra taken during the course of this type of assay are shown, in FIG. 4. […] The sample is incubated at 37° C. for 30 min and then illuminated with 330 nm light. The emission spectra are shown in the range of 400-600 nm. HPR binds to RBP and prevents interaction with TTR, and here this property of HPR is utilized here to validate the ability of this screen to detect inhibition of RBP-TTR interaction. […] Additionally, the design of this assay permits discrimination between compounds which interact with RBP versus those which interact with TTR. Thus, by using two distinct excitation energies (280 nm and 330 nm, for protein and retinol, respectively) and implementing simultaneous monitoring of the retinol and TTR-probe fluorescence, the “target” of a presumptive small molecule can be easily determined.
Accordingly, HPR was employed at varied concentrations (from 0-4 μM), using the conditions specified in Example 7, to evaluate the high throughput assay.
The mechanism of action underlying this effect can be explained by the disruption of RBP-TTR interactions. In order to explore this possibility and to further validate the RBP-TTR screen, the effects of all-trans retinoic and 13-cis retinoic acid, using the conditions the conditions specified for analysis of HPR, were examined.

SMILES: CC1=C(/C=C/C(C)=C/C=C/C(C)=C/C(=O)Nc2ccc(O)cc2)C(C)(C)CCC1 [HPR, N-(4-hydroxyphenyl)retinamide]
- reduction in A2PE-H2 (ABCA4 null mutant mice; 2.5 mg/kg dosage group, 28 days): −47%
- electrophysiology: recovery from photobleaching (ABCA4 null mutant mice; 10 mg/kg daily for 28 days): delayed dark adaptation
- regeneration of visual chromophore (ABCA4 null mutant mice; 10 mg/kg daily for 28 days): does not affect regeneration of visual chromophore
- retinal morphology by light microscopy (ABCA4 null mutant mice; 28 days): No aberrant morphology or compromise of the integrity in retinal cyto structure was observed
- level of autofluorescence versus wild type (ABCA4 null mutant mice; abcr null mutant mice, 28 days): comparable to that of an age-matched wild-type animal
- lipofuscin autofluorescence in the RPE (ABCA4 null mutant mice; abcr null mutant mice, 28 days): significantly reduces lipofuscin autofluorescence
- A2PE-H2 and A2E during the study period (ABCA4 null mutant mice; indicated doses daily for 28 days): dose-dependent reductions
- serum retinol (ABCA4 null mutant mice; summary statement): potently and reversibly reduces serum retinol
- interaction of TTR with RBP [1]: interferes with the normal interaction of TTR with RBP
- retinol and TTR-probe fluorescence (loss of RBP-TTR complexation) (retinol-RBP-TTR complex; HPR 1 μM, 0.5 μM RBP + 0.5 μM Alexa430-TTR, 37° C. 30 min, 330 nm excitation): significantly reduced retinol and TTR-probe fluorescence
- inhibition of retinol-RBP-TTR complex formation (retinol-RBP-TTR complex; varied concentrations 0-4 μM, FIG. 5): dose dependent inhibition
